Assay: storage stability of trans-resveratrol under controlled temperature and humidity
Type: physicochemical
Conditions: stored at 10.0° C. (50 degrees F.) to approximately 30° C. (86 degrees F.), humidity less than 35 percent
Procedure: (50 degrees F.) to approximately 30° C.
Twenty five (25) kilograms of fine powder consisting of pomace, vines and leaves is stored in a cool, dark, dry location for shipping to the dietary supplement manufacturing facility. The temperature range of the storage area is in a range of between approximately 10.0° C. (50 degrees F.) to approximately 30° C. (86 degrees F.) and the dry location has a humidity level of less than 35 percent water vapor in the air.

Oc1ccc(/C=C/c2cc(O)cc(O)c2)cc1 [trans-resveratrol]
stability during storage and processing: remain stable | stability during storage and processing (listed as organic trans-resveratrol): remains a stable compound

— patent publication US9125824B1 (InnoVitamin Organics, LLC, priority 2010, dated 2015)
